Assay results taken from US20240293386A1, “NOVEL COMPOUND AS PROTEIN KINASE INHIBITOR” (LG CHEM, LTD., priority 2021, published 2024).

Experiments:
RON = RON (Homo sapiens, UniProt Q04912); experiment: Evaluation of inhibitory activity against RON (TR-FRET); format: biochemical; conditions: TR-FRET enzyme assay, RON protein, ULight-labeled Poly GT substrate, ATP
Procedure: In order to measure the inhibitory activity of each of the compounds of Examples against RON, the IC50 of each of the compounds was measured using Time-resolved fluorescence energy transfer (TR-FRET).
(§1) Specifically, the compound was prepared to a concentration of 1 mM in 100% DMSO and was diluted 10 times in a stepwise manner through 3-fold dilution. The compound (2 μL) diluted in a stepwise manner was added to a 96-well-plate containing 48 μL of a 1× kinase reaction buffer (50 mM HEPES (pH 7.4), 0.01% Tween-20, 5 mM DTT, 0.5 mM Na3VO4, 2 mM EGTA, 10 mM MgCl2).
The RON protein was diluted to a concentration of 49.3 nM in a RON storage buffer (50 mM Tris-HCl (pH 7.5), 150 mM NaCl, 0.5 mM EDTA, 0.02% Triton X-100), and then diluted again to a concentration of 0.4 nM in a 1× kinase reaction buffer. As a substrate cocktail, a RON-specific substrate mixed solution (40 uM ULight-labeled Poly GT, 100 nM ATP) was prepared at a concentration 2 times the final reaction concentration.
(§2) Thereafter, a 384-well-plate was prepared, and 2.5 μL of each of the diluted compounds of Examples was added to a corresponding well of experimental group wells, and 2.5 μL of a 4% DMSO solution was dispensed into high control wells and low control wells.
(§3) Thereafter, 2.5 μL of 0.4 nM RON was dispensed into each of the high control wells and the experimental group wells, and 2.5 μL of the 1× kinase reaction buffer was added to the low control wells, and all the wells were centrifuged at room temperature for 40 seconds at 1,000 RPM, and then incubated at room temperature for 20-30 minutes. Then, 5 μL of the substrate cocktail (2×) was dispensed into each well, and all the wells were centrifuged at room temperature for 40 seconds at 1,000 RPM, and then incubated at room temperature for 60 minutes. Thereafter, 5 μL of 30 mM EDTA was added to each well to terminate the reaction, and all the wells were then incubated again at room temperature for 5 minutes. Thereafter, 5 μL of a 4× phosphotyrosine antibody (Perkin Elmer) containing europium was added to each well, and all the wells were then incubated at room temperature for 60 minutes. After the incubation, the 384-well-plate was read with the Vison plate reader. In this case, the excitation wavelength was 340 nm, and the emission wavelength was 620 nm and 665 nm. The IC50 value of each compound of Examples was derived using the GraphPd Prism7 program.

cMET = cMET (Homo sapiens, UniProt P08581); experiment: Evaluation of inhibitory activity against MET (TR-FRET); format: biochemical; conditions: TR-FRET enzyme assay, cMET protein, TK peptide substrate, ATP
cMET, sequence (P08581 25-1390): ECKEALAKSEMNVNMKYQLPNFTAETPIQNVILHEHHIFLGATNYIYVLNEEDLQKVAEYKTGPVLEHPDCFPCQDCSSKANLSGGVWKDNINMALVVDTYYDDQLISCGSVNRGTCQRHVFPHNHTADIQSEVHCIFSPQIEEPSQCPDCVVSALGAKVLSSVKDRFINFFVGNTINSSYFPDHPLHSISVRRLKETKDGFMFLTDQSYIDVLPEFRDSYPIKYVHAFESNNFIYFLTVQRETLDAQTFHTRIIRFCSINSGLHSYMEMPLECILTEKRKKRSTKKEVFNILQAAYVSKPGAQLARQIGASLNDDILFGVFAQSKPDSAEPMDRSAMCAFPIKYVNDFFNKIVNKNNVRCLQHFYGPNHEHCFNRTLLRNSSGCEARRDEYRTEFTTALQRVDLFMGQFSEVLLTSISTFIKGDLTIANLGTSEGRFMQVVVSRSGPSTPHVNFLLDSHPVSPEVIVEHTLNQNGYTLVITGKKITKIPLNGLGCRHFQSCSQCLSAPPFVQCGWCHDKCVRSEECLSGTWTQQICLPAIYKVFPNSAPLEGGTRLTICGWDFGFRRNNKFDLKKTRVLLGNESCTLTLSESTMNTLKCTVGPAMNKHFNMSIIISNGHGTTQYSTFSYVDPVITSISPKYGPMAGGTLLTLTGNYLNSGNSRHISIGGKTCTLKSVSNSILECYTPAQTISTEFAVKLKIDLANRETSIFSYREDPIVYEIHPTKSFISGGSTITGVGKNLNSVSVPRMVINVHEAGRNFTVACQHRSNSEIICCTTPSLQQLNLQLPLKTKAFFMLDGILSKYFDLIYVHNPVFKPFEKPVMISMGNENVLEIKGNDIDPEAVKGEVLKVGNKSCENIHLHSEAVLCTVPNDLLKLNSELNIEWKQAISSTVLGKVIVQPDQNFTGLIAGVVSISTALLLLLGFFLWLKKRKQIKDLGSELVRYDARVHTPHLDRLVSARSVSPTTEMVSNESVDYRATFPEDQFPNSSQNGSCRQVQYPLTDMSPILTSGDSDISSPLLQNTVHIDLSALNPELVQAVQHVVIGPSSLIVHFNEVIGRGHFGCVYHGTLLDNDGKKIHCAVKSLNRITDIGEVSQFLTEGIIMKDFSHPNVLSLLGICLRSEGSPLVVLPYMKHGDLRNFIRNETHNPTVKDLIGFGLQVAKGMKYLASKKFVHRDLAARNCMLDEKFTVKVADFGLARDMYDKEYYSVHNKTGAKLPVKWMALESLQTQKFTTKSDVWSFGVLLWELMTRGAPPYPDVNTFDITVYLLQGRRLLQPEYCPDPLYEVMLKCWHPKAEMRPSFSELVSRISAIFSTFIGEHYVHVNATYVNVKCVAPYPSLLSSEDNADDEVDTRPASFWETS
Procedure: In addition, in order to measure the enzyme activity inhibition for cMET, the evaluation was performed in the same manner as the enzyme activity inhibition measurement experiment for RON.
as §1, with “7.4), 0.05% BSA, 0.005%” for “7.4), 0.01%”, “Tween-20, 1” for “Tween-20, 5”, “mM MnCl2, 20” for “mM Na3VO4, 2 mM EGTA, 10”
The cMET protein was diluted to a concentration of 263 nM in a cMET storage buffer (50 mM Tris-HCl (pH 7.5), 150 mM NaCl, 0.05% Brij35, 1 mM DTT, 10% Glycerol), and then diluted again to a concentration of 2 nM in a 1× kinase reaction buffer. As a substrate cocktail, a MET-specific substrate mixed solution (5 μM TK peptide, 10 mM ATP) was prepared at a concentration 2 times the final reaction concentration.
as §2
as §3, with “of 2” for “of 0.4”, “nM cMET” for “nM RON”, “of 90” for “of 30”

RON, sequence (Q04912 25-1400, species assumed): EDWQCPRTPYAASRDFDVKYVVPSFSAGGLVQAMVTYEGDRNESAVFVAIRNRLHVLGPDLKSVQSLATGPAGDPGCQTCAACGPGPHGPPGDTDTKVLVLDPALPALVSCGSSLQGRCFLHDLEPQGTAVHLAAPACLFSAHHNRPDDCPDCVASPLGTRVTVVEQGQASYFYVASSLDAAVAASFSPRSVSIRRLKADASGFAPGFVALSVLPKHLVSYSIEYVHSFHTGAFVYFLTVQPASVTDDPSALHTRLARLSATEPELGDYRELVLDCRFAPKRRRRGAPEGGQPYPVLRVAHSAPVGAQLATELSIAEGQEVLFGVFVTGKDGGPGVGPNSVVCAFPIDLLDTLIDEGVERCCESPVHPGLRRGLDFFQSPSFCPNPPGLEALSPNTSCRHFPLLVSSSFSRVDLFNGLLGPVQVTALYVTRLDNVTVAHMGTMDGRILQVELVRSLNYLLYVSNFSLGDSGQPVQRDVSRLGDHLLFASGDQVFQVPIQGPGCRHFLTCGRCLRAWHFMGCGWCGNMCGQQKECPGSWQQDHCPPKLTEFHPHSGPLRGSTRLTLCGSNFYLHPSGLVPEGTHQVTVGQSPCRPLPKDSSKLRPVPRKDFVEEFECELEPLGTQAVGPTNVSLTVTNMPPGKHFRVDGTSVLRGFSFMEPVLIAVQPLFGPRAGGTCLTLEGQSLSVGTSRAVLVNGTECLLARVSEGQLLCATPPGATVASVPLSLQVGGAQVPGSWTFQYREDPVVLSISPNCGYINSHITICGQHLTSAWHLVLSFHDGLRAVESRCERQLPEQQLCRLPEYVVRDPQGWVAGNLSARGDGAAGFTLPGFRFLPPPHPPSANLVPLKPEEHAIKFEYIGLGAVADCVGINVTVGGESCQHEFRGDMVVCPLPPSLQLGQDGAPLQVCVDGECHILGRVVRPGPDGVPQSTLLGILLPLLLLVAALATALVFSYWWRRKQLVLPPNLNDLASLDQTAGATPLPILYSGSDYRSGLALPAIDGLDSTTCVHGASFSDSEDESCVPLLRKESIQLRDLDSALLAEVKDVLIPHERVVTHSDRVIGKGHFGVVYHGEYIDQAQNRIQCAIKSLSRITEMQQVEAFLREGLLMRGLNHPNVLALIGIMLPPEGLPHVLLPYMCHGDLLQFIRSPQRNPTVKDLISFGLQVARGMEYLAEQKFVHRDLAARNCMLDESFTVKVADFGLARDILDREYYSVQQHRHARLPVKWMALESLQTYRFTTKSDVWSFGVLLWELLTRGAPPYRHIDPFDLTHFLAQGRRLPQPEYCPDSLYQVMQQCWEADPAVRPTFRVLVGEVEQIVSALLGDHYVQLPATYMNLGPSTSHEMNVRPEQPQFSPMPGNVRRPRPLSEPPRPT

An IC50 (RON) of 5120 nM and an IC50 (cMET) of 5230 nM were found for CCOc1ccn(-c2ccc(F)cc2)c(=O)c1C(=O)Nc1ccc(-c2ccc3nc(N)sc3n2)c(C)c1 [Example 1, N-(4-(2-aminothiazolo[5,4-b]pyridin-5-yl)-3-methylphenyl)-4-ethoxy-1-(4-fluorophenyl)-2-oxo-1,2-dihydropyridine-3-carboxamide] in this work.

An IC50 (cMET) of 6720 nM was found for CCOc1ccn(-c2ccc(F)cc2)c(=O)c1C(=O)Nc1ccc(Nc2ccc3nc(N)sc3n2)c(F)c1 [Example 3, N-(4-((2-aminothiazolo[5,4-b]pyridin-5-yl)amino)-3-fluorophenyl)-4-ethoxy-1-(4-fluorophenyl)-2-oxo-1,2-dihydropyridine-3-carboxamide] in this work.

An IC50 (cMET) of 8270 nM was found for Cc1ccc(C(=O)Nc2ccc(Oc3cc(Cl)nn4ccnc34)c(F)c2)c(=O)n1-c1ccc(F)cc1 [Example 6, N-(4-((6-chloroimidazo[1,2-b]pyridazin-8-yl)oxy)-3-fluorophenyl)-1-(4-fluorophenyl)-6-methyl-2-oxo-1,2-dihydropyridine-3-carboxamide] in this work.

An IC50 (cMET) of 4860 nM was found for COc1ccn(-c2ccc(F)cc2)c(=O)c1C(=O)Nc1ccc(-c2ccnc(-c3ccnc(N)n3)c2)c(F)c1 [Example 15, N-(4-(2-(2-aminopyrimidin-4-yl)pyridin-4-yl)-3-fluorophenyl)-1-(4-fluorophenyl)-4-methoxy-2-oxo-1,2-dihydropyridine-3-carboxamide] in this work.

An IC50 (cMET) of 1490 nM was found for Cc1ccc(C(=O)Nc2ccc(-c3ccnc(-c4ccnc(N)n4)c3)c(F)c2)c(=O)n1-c1ccc(F)cc1 [Example 16, N-(4-(2-(2-aminopyrimidin-4-yl)pyridin-4-yl)-3-fluorophenyl)-1-(4-fluorophenyl)-6-methyl-2-oxo-1,2-dihydropyridine-3-carboxamide] in this work.

An IC50 (RON) of 467 nM and an IC50 (cMET) of 496 nM were found for CCOc1ccn(-c2ccc(F)cc2)c(=O)c1C(=O)Nc1ccc(-c2ccc3c(N)n[nH]c3c2)c(F)c1 [Example 18, N-(4-(3-amino-1H-indazol-6-yl)-3-fluorophenyl)-4-ethoxy-1-(4-fluorophenyl)-2-oxo-1,2-dihydropyridine-3-carboxamide] in this work.

An IC50 (cMET) of 6540 nM was found for CCOc1ccn(-c2ccc(F)cc2)c(=O)c1C(=O)Nc1ccc(-c2ccc3[nH]ncc3c2)c(F)c1 [Example 19] in this work.

An IC50 (cMET) of 6030 nM was found for CCOc1ccn(-c2ccc(F)cc2)c(=O)c1C(=O)Nc1ccc(-c2ccc3snc(N)c3c2)c(F)c1 [Example 21, N-(4-(3-aminobenzo[d]isothiazol-5-yl)-3-fluorophenyl)-4-ethoxy-1-(4-fluorophenyl)-2-oxo-1,2-dihydropyridine-3-carboxamide] in this work.

An IC50 (RON) of 44 nM and an IC50 (cMET) of 11 nM were found for Cc1c(C(=O)Nc2ccc(Oc3ccnc(N)c3Cl)c(F)c2)c(=O)n(-c2ccccc2)n1C [Example 24, N-(4-((2-amino-3-chloropyridin-4-yl)oxy)-3-fluorophenyl)-1,5-dimethyl-3-oxo-2-phenyl-2,3-dihydro-1H-pyrazole-4-carboxamide] in this work.

An IC50 (RON) of 1 nM and an IC50 (cMET) of 2 nM were found for Cc1ccc(C(=O)Nc2ccc(Oc3ccnc(N)c3Cl)c(F)c2)c(=O)n1-c1ccc(F)cc1 [Example 25, N-(4-((2-amino-3-chloropyridin-4-yl)oxy)-3-fluorophenyl)-1-(4-fluorophenyl)-6-methyl-2-oxo-1,2-dihydropyridine-3-carboxamide] in this work.

An IC50 (RON) of 3 nM and an IC50 (cMET) of 3 nM were found for Nc1nccc(Oc2ccc(NC(=O)c3ccc(CO)n(-c4ccc(F)cc4)c3=O)cc2F)c1Cl [Example 26, N-(4-((2-amino-3-chloropyridin-4-yl)oxy)-3-fluorophenyl)-1-(4-fluorophenyl)-6-(hydroxymethyl)-2-oxo-1,2-dihydropyridine-3-carboxamide] in this work.

An IC50 (RON) of 2 nM and an IC50 (cMET) of 6 nM were found for Nc1nccc(Oc2ccc(NC(=O)c3cc(C4CC4)cn(-c4ccc(F)cc4)c3=O)cc2F)c1Cl [Example 27, N-(4-((2-amino-3-chloropyridin-4-yl)oxy)-3-fluorophenyl)-5-cyclopropyl-1-(4-fluorophenyl)-2-oxo-1,2-dihydropyridine-3-carboxamide] in this work.

An IC50 (RON) of 8 nM and an IC50 (cMET) of 18 nM were found for Nc1nccc(Oc2ccc(NC(=O)c3ccc(C(F)(F)F)n(-c4ccc(F)cc4)c3=O)cc2F)c1Cl [Example 28, N-(4-((2-amino-3-chloropyridin-4-yl)oxy)-3-fluorophenyl)-1-(4-fluorophenyl)-2-oxo-6-(trifluoromethyl)-1,2-dihydropyridine-3-carboxamide] in this work.

An IC50 (RON) of 82 nM and an IC50 (cMET) of 54 nM were found for Cc1c(C(=O)Nc2ccc(Oc3ccnc(N)c3Cl)c(F)c2)c(=O)n(-c2ccccc2)n1CC(C)(C)O [Example 29, N-(4-((2-amino-3-chloropyridin-4-yl)oxy)-3-fluorophenyl)-1-(2-hydroxy-2-methylpropyl)-5-methyl-3-oxo-2-phenyl-2,3-dihydro-1H-pyrazole-4-carboxamide] in this work.

An IC50 (RON) of 25 nM and an IC50 (cMET) of 12 nM were found for Cc1ccc(C(=O)Nc2ccc(Oc3ccnc(NC(=O)C4CC4)c3Cl)c(F)c2)c(=O)n1-c1ccc(F)cc1 [Example 30, N-(4-((3-chloro-2-(cyclopropanecarboxamido)pyridin-4-yl)oxy)-3-fluorophenyl)-1-(4-fluorophenyl)-6-methyl-2-oxo-1,2-dihydropyridine-3-carboxamide] in this work.

An IC50 (cMET) of 3550 nM was found for Cc1ccc(C(=O)Nc2ccc(Oc3ccnc(N(C(=O)C4CC4)C(=O)C4CC4)c3Cl)c(F)c2)c(=O)n1-c1ccc(F)cc1 [Example 31, N-(4-((3-chloro-2-(N-(cyclopropanecarbonyl)cyclopropanecarboxamido)pyridin-4-yl)oxy)-3-fluorophenyl)-1-(4-fluorophenyl)-6-methyl-2-oxo-1,2-dihydropyridine-3-carboxamide] in this work.

An IC50 (cMET) of 1690 nM was found for Cc1ccc(C(=O)Nc2ccc(NC(=O)c3cc(Br)cnc3N)c(F)c2)c(=O)n1-c1ccc(F)cc1 [Example 32, 2-amino-5-bromo-N-(2-fluoro-4-(1-(4-fluorophenyl)-6-methyl-2-oxo-1,2-dihydropyridine-3-carboxamido)phenyl)nicotinamide] in this work.

An IC50 (RON) of 7880 nM and an IC50 (cMET) of 1560 nM were found for Cc1ccc(C(=O)Nc2ccc(NC(=O)c3cc(-c4cnn(C)c4)cnc3N)c(F)c2)c(=O)n1-c1ccc(F)cc1 [Example 34, 2-amino-N-(2-fluoro-4-(1-(4-fluorophenyl)-6-methyl-2-oxo-1,2-dihydropyridin-3-carboxamido)phenyl)-5-(1-methyl-1H-pyrazol-4-yl)nicotinamide] in this work.

An IC50 (RON) of 7 nM and an IC50 (cMET) of 14 nM were found for Cc1ccc(C(=O)Nc2ccc(Oc3ncnc(N)c3Cl)c(F)c2)c(=O)n1-c1ccc(F)cc1 [Example 36, N-(4-((6-amino-5-chloropyrimidin-4-yl)oxy)-3-fluorophenyl)-1-(4-fluorophenyl)-6-methyl-2-oxo-1,2-dihydropyridine-3-carboxamide] in this work.
